Assay results reported in patent US6486196B2, “Anticancer compounds: process for their preparation and pharmaceutical compositions containing them” (Dr. Reddy's Research Foundation, priority 2000, dated 2002).
Read-outs that look alike come from different tables or passages of the source.

Legend:
HIV-1/MN = experiment: Anti HIV activity in PM-1 cells (P24 ELISA, MTT corrected); type: cell-based; settings: 1 μM; PM-1 cells infected with HIV-1/MN, 96 h, P24 antigen corrected by MTT
Procedure: Human CD^4+ T cell line PM-1 used in the assay was cultured in RPMI-1640 medium containing 10% Fetal bovine serum, 2 g/L sodium bicarbonate, 100,000 units/L Pencillin-G and 100 mg/L streptomycin. Healthy PM-1 cells were plated on the first day in a 96 well plate at 2×10^6 cells per well. After 24 h HIV-1/MN was added to the culture and incubated for 2 h for infection. Cells were washed twice with PBS to remove the virus in the culture. Different concentrations of DRF compounds ranging from 10−^4 to 10^−8 M were added to the culture and incubated for 96 h. The viability of cells was then assessed by standard MTT assay and the viral antigen P24 levels were estimated by ELISA method. Based on the MTT assay values the P 24 antigen values were corrected.
All the samples were tested in triplicates and the average was used for calculations. AZT was used as standard compound for comparision.

KB = KB cells; cited from earlier work
[1] = test system: P388 lymphocytic leukemia; settings: P388 cells; cited from earlier work
MCF-7/ADR = experiment: Sulforhodamine B growth inhibition, breast MCF-7/ADR; type: cell-based, human; settings: 48 h, SRB, read-out: GROWTH INHIBITION (GI 50)
Procedure: (§1) Each test compound was screened against a battery of cell lines representing eight different types of cancers. In a typical procedure, 1×10^4 cells were seeded into each well of 96 well plate in 100 μL volume of RPMI 1640 medium containing antibiotics and 10% FCS.
(§2) The plates were incubated at 37° C. in presence of CO2. After 24 h, test compounds were evaluated at five 10 fold dilutions ranging from 100 to 0.01 μM. To each test well 100 μL of test compound solution was added and medium with vehicle was added to control wells and the plates were further incubated. After 48 h of incubation, plates were terminated by Sulforhodamine B method.
(§3) The optical density which is proportional to protein mass, is then read by automated spectrophotometric plate reader at a wavelength of 515 nm.

MCF7 = experiment: Sulforhodamine B growth inhibition, breast MCF7; type: cell-based, human; settings: Homo sapiens, 48 h, SRB, read-out: GROWTH INHIBITION (GI 50)
Procedure: as §1, §2, §3

U251 = experiment: Sulforhodamine B growth inhibition, CNS U251; type: cell-based, human; settings: SRB, read-out: GROWTH INHIBITION (GI 50)
Procedure: as §1, §2, §3

SW-620 = experiment: Sulforhodamine B growth inhibition, colon SW-620; type: cell-based, human; settings: 48 h, SRB, read-out: GROWTH INHIBITION (GI 50)
Procedure: as §1, §2, §3

HT29 = experiment: Sulforhodamine B growth inhibition, colon HT29; type: cell-based, human; settings: Homo sapiens, HT-29, 48 h, SRB, read-out: GROWTH INHIBITION (GI 50)
Procedure: as §1, §2, §3

H522 = experiment: Sulforhodamine B growth inhibition, lung H522; type: cell-based, human; settings: SRB, read-out: GROWTH INHIBITION (GI 50)
Procedure: as §1, §2, §3

UACC62 = experiment: Sulforhodamine B growth inhibition, melanoma UACC62; type: cell-based, human; settings: Homo sapiens, UACC-62, 48 h, SRB, read-out: GROWTH INHIBITION (GI 50)
Procedure: as §1, §2, §3

SKOV-3 = experiment: Sulforhodamine B growth inhibition, ovarian SKOV-3; type: cell-based, human; settings: SRB, read-out: GROWTH INHIBITION (GI 50)
Procedure: as §1, §2, §3

PA1 = experiment: Sulforhodamine B growth inhibition, ovarian PA1; type: cell-based, human; settings: Homo sapiens, PA-1, 48 h, SRB, read-out: GROWTH INHIBITION (GI 50)
Procedure: as §1, §2, §3

A498 = experiment: Sulforhodamine B growth inhibition, renal A498; type: cell-based, human; settings: 48 h, SRB, read-out: GROWTH INHIBITION (GI 50)
Procedure: as §1, §2, §3

DU145 = experiment: Sulforhodamine B growth inhibition, prostate DU145; type: cell-based, human; settings: SRB, read-out: GROWTH INHIBITION (GI 50)
Procedure: as §1, §2, §3

PC-3 = experiment: Sulforhodamine B growth inhibition, prostate PC-3; type: cell-based, human; settings: Homo sapiens, 48 h, SRB, read-out: GROWTH INHIBITION (GI 50)
Procedure: as §1, §2, §3

ACHN = experiment: Sulforhodamine B growth inhibition, renal ACHN; type: cell-based; settings: Homo sapiens, 48 h, SRB, read-out: GROWTH INHIBITION (GI 50)
Procedure: as §1, §2, §3

M14 = experiment: Sulforhodamine B growth inhibition, melanoma M14; type: cell-based, human; settings: 48 h, SRB, read-out: GROWTH INHIBITION (GI 50)
Procedure: as §1, §2, §3

HIV-1 (EIB) = settings: cited from earlier work

For Cc1cn([C@H]2C[C@H](N=[N+]=[N-])[C@@H](CO)O2)c(=O)[nH]c1=O [AZT, reference compound], the “Percentage Inhibition” value (HIV-1/MN) was 72.47%.

For C=C1CC[C@@H]2[C@](C)(CO)[C@H](O)CC[C@@]2(C)[C@@H]1C/C=C1/C(=O)OC[C@H]1O [Andrographolide], the cytotoxic activity (KB) is listed as “potent cytotoxic activity” and the cytotoxic activity [1] is listed as “potent cytotoxic activity”.

For C=C1CC[C@@H]2[C@]3(C)COC(C)(C)O[C@@H]3CC[C@@]2(C)[C@@H]1C/C=C1/C(=O)OC[C@H]1O [Example 1, 3,19-isopropylidene andrographolide], the GI50 (MCF-7/ADR; Homo sapiens, NCI/ADR-RES) was 2 µM, the GI50 (MCF7) was 13 µM and the GI50 (U251; Homo sapiens, U-251, 48 h) was 4 µM. The GI50 (SW-620; Homo sapiens) was 5 µM, the GI50 (HT29) was 2 µM and the GI50 (H522; Homo sapiens, NCI-H522, 48 h) was 14 µM. It also gave a GI50 (UACC62) of 4 µM, a GI50 (SKOV-3; Homo sapiens, SK-OV-3, 48 h) of 8 µM and a GI50 (PA1) of 2 µM. It also gave a GI50 (A498; Homo sapiens) of 13 µM and a melting point of 194.5 °C.

C=C1CCC2[C@]3(C)COC(c4ccccc4)O[C@@H]3CC[C@]2(C)[C@H]1C/C=C1/C(=O)OC[C@H]1O (stereo partly drawn) [Example 2, 3,19-Benzylidene andrographolide] showed a melting point of 142 to 143 °C.

C=C1CCC2[C@]3(C)COC(C)(c4ccccc4)O[C@@H]3CC[C@]2(C)[C@H]1C/C=C1/C(=O)OC[C@H]1O (stereo partly drawn) [Example 3, 3,19-(1-Phenylethylidene)andrographolide] showed a GI50 (MCF-7/ADR; Homo sapiens, NCI/ADR-RES) of 2 µM, a GI50 (MCF7) of 12 µM and a GI50 (U251; Homo sapiens, U-251, 48 h) of 2 µM. It also gave a GI50 (SW-620; Homo sapiens) of 5 µM, a GI50 (HT29) of 2 µM and a GI50 (H522; Homo sapiens, NCI-H522, 48 h) of 12 µM. It also gave a GI50 (UACC62) of 3 µM, a GI50 (SKOV-3; Homo sapiens, SK-OV-3, 48 h) of 5 µM and a GI50 (PA1) of 19 µM. It also gave a GI50 (A498; Homo sapiens) of 3 µM and a melting point of 201 to 203 °C.

In the case of C=C1CCC2[C@]3(C)COC(C)(C)O[C@@H]3CC[C@]2(C)[C@H]1C/C=C1/C(=O)OC[C@H]1OC(=O)[C@H](CCSC)NC(=O)OC(C)(C)C (stereo partly drawn) [Example 4, 3,19-isopropylidene-14-(N-Boc-methionyl)andrographolide], the melting point is reported as 70 °C.

C=C1CCC2[C@](C)(CO)[C@H](O)CC[C@]2(C)[C@H]1C/C=C1/C(=O)OC[C@H]1OC(C)=O (stereo partly drawn) [Example 7, 14-acetyl andrographolide] showed a melting point of 169 °C.

Work on C=C1CCC2[C@](C)(CO)[C@H](O)CC[C@]2(C)[C@H]1C/C=C1/C(=O)OC[C@H]1OC(=O)Nc1ccccc1 (stereo partly drawn) [Example 9, 14-phenylcarbamoyl andrographolide] yielded a GI50 (MCF-7/ADR; Homo sapiens, NCI/ADR-RES) of 0.4 µM, a GI50 (MCF7) of 2.5 µM and a GI50 (U251; Homo sapiens, U-251, 48 h) of 6.5 µM. It also gave a GI50 (SW-620; Homo sapiens) of 2.5 µM, a GI50 (HT29) of 4 µM and a GI50 (H522; Homo sapiens, NCI-H522, 48 h) of 12 µM. It also gave a GI50 (UACC62) of 3 µM, a GI50 (SKOV-3; Homo sapiens, SK-OV-3, 48 h) of 3 µM and a GI50 (DU145; Homo sapiens, DU-145, 48 h) of 6 µM. For the same molecule, the GI50 (PC-3) was 3 µM, the GI50 (ACHN) was 5 µM and the melting point was 120 °C.

C=C1CCC2[C@](C)(CO)[C@H](O)CC[C@]2(C)[C@H]1C/C=C1/C(=O)OC[C@H]1OC(=O)NC(C)C (stereo partly drawn) [Example 10, 14-(N-isopropyl)carbamoyl andrographolide] gave a melting point of 122 °C.

For C=C1CCC2[C@](C)(CO)[C@H](O)CC[C@]2(C)[C@H]1C/C=C1/C(=O)OC[C@H]1OC(=O)/C=C/c1ccccc1 (stereo partly drawn) [Example 11, 14-Cinnamoyl andrographolide], the melting point was 77 °C.

For C=C1CCC2[C@](C)(CO)[C@H](O)CC[C@]2(C)[C@H]1C/C=C1/C(=O)OC[C@H]1OC(=O)C(C)C (stereo partly drawn) [Example 12, 14-Isopropanoyl andrographolide], the melting point was 122.6 °C.

C=C1CCC2[C@](C)(CO)[C@H](O)CC[C@]2(C)[C@H]1C/C=C1/C(=O)OC[C@H]1OC(=O)C(C)(C)C (stereo partly drawn) [Example 13, 14-Pivaloyl andrographolide] gave a melting point of 172.7 °C.

Work on C=C1CCC2[C@](C)(CO)[C@H](O)CC[C@]2(C)[C@H]1C/C=C1/C(=O)OC[C@H]1OC(=O)c1ccccc1 (stereo partly drawn) [Example 14, 14-Benzoyl andrographolide] yielded a GI50 (MCF-7/ADR; Homo sapiens, NCI/ADR-RES) of 3.5 µM, a GI50 (MCF7) of 10 µM and a GI50 (U251; Homo sapiens, U-251, 48 h) of 1.5 µM. It also gave a GI50 (SW-620; Homo sapiens) of 3 µM, a GI50 (HT29) of 4 µM and a GI50 (H522; Homo sapiens, NCI-H522, 48 h) of 7.5 µM. The GI50 (UACC62) was 3 µM, the GI50 (SKOV-3; Homo sapiens, SK-OV-3, 48 h) was 3.5 µM and the GI50 (DU145; Homo sapiens, DU-145, 48 h) was 6 µM. For the same molecule, the GI50 (PC-3) was 2 µM, the GI50 (ACHN) was 5 µM and the melting point was 85.5 to 87 °C.

For C=C1CCC2[C@](C)(CO)[C@H](O)CC[C@]2(C)[C@H]1C/C=C1/C(=O)OC[C@H]1OCc1ccccc1 (stereo partly drawn) [Example 15, 14-Benzyl andrographolide], the GI50 (MCF-7/ADR; Homo sapiens, NCI/ADR-RES) was 20 µM, the GI50 (MCF7) was 6 µM and the GI50 (U251; Homo sapiens, U-251, 48 h) was 40 µM. For the same molecule, the GI50 (SW-620; Homo sapiens) was 3.5 µM, the GI50 (HT29) was 3.5 µM and the GI50 (H522; Homo sapiens, NCI-H522, 48 h) was 12 µM. It also gave a GI50 (UACC62) of 3.5 µM, a GI50 (SKOV-3; Homo sapiens, SK-OV-3, 48 h) of 3 µM and a GI50 (DU145; Homo sapiens, DU-145, 48 h) of 4 µM. For the same molecule, the GI50 (PC-3) was 2 µM, the GI50 (ACHN) was 4 µM and the melting point was 141 °C.

C=C1CC[C@@H]2[C@](C)(COC(C)=O)[C@H](OC(C)=O)CC[C@@]2(C)[C@@H]1C/C=C1/C(=O)OC[C@H]1OC(=O)C(O)C(NC(=O)c1ccccc1)c1ccccc1 (stereo partly drawn) [Example 18, 3,19-Diacetyl-14-(2′hydroxy-3′-benzoylamino 3′-phenyl)propionyl andrographolide] showed a GI50 (MCF-7/ADR) of 8 µM, a GI50 (U251; 48 h) of 8 µM and a GI50 (SW-620) of 5 µM. The GI50 (H522; 48 h) was 20 µM, the GI50 (M14) was 3 µM and the GI50 (SKOV-3; 48 h) was 4 µM. The GI50 (DU145; 48 h) was 3 µM and the GI50 (A498) was 10 µM.

For C=C1CCC2[C@](C)(COC(=O)CC)[C@H](OC(=O)CC)CC[C@]2(C)[C@H]1C/C=C1/C(=O)OC[C@H]1OC(=O)CNC(=O)OC(C)(C)C (stereo partly drawn) [Example 20, 14-(N-Boc-glycinyl)-3,19-dipropionyl andrographolide], the melting point was 65 °C.

C=C1CC[C@@H]2[C@](C)(COC(C)=O)[C@H](OC(C)=O)CC[C@@]2(C)[C@@H]1C/C=C1/C(=O)OC[C@H]1OC(=O)CNC(C)=O [Example 22, 14-(N-acetyl-glycinyl)-3,19-diacetyl andrographolide] gave a GI50 (MCF-7/ADR) of 8 µM, a GI50 (U251; 48 h) of 1.5 µM and a GI50 (SW-620) of 5 µM. For the same molecule, the GI50 (H522; 48 h) was 20 µM, the GI50 (M14) was 9.5 µM and the GI50 (SKOV-3; 48 h) was 30 µM. It also gave a GI50 (DU145; 48 h) of 8 µM and a GI50 (A498) of 25 µM.

C=C1CCC2[C@](C)(COC(=O)CC)C(OC(=O)CC)CC[C@]2(C)[C@H]1C/C=C1/C(=O)OCC1OC(=O)/C=C/c1ccc(OC)c(OC)c1 (stereo partly drawn) [Example 27, 14-(3,4-dimethoxy)cinnamoyl-3,19-dipropionyl andrographolide] showed a melting point of 85.4 °C.

For “dehydroandrographolide succinic acid monoester [DASM]”, the “minimal concentration inhibitory to HIV-1 (EIB)” value (HIV-1 (EIB)) is listed as 1.6 to 3.1 µg/mL.
